We go through two compounds from patent US4978665A, “3(2H)pyridazinone, and antagonistic agent against SRS-A containing it” (Nissan Chemical Industries Ltd., priority 1987, dated 1990).

Series [1] in a line: Acute toxicity test (lethal ratio, oral). Type of series: in vivo, CD-1(ICR) strain male mice. The conditions noted are these: 1200 mg/kg oral; 7 days after administration; experimental number 5. Here is the method:
The lethal ratio was determined in CD-1(ICR) strain male mice (5 weeks old) at 7 days after the oral administration of test compounds.

A further series deals with LTD4. Put plainly: LTD4 antagonism in guinea-pig trachea (in vitro test). The format is cell-based. To be noted: Cavia porcellus, 0.5 h, LTD4 2×10^-8 g/ml, isolated guinea-pig trachea; for inhibition at 1 µg/mL: 10^-6 g/ml test compound. Here is the method: (§1) SRS-A is a mixture of leukotriene C4 (hereinafter referred to as LTC4), leukotriene D4 (hereinafter referred to as LTD4), leukotriene E4 (hereinafter referred to as LTE4) and the like. Accordingly, antagonistic activities against SRS-A can be evaluated by one of the following two test methods:
LTD4 antagonism in guinea-pig trachea
Antagonism for LTD4 was determined in isolated male guinea-pig (300-400 g) trachea prepared as spiral strip. Tracheal preparations were suspended under 1 g tension in 10 ml organ baths containing 5 μM of indomethacin and they were incubated for 1 hr prior to use. Contractile responses to LTD4 (2×10^-8 g/ml) were obtained after the maximal response to histamine (10^- 4 M). Test compounds dissolved in 100% dimethyl sulfoxide were added to the organ baths (final concentration of 10^-6 g/ml or 10^-7 g/ml) 30 min prior to LTD4 addition, and then contractile responses to LTD4 were compared with those of control which was obtained from a paired trachea in the absence of test compounds. LTD4 -induced contractions were expressed as a percentage of the maximal response to histamine. The antagonism was determined as follows:
Antagonism (%)=(1.0 - % contraction in test/% contraction in control)×100
In parenthesis in Table 2, LTD4 antagonisms by test compounds at a concentration of 10^-7 g/ml are shown.

The subject of a further series is SRS-A. Put plainly: Effect on anaphylactic bronchoconstriction mediated by endogeneously liberated SRS-A in passively sensitized guinea-pig (in vivo test). To be noted: for Inhibition (%) of bronchoconstriction: 2 hrs before EA challenge; for inhibitory effects over the control (in words): oral administration, doses of Table 3, P<0.05.
From the text: as §1
Effect on anaphylactic bronchoconstriction mediated by endogeneously liberated SRS-A in passively sensitized guinea-pig
Male guinea-pigs (350-450 g) were passively sensitized with intravenous (i.v.) injection of 0.125 ml rabbit anti-EA (egg albumin) serum (Capple Laboratories) 1 to 2 days preceding the experiment. Antigen-induced anaphylactic bronchoconstrictions mediated by endogeneously liberated SRS-A were measured by modified method of Konzett and Rossler (Arch. Exp. Path. Pharmak., 195, 71, 1940). Sensitized guinea-pigs were anaesthetized with intraperitoneal injection of urethane (1.5 g/kg). The right jugular vein was cannulated for the administration of the all agents and trachea was cannulated to record total pulmonary resistance. Guinea-pigs were artificially ventilated by a small animal respirator (Shinano, Model SN-480-7) set at a stroke volume of 4.5 ml and a rate of 50 breaths per min. The change in pulmonary resistance was measured with a pressure transducer (Nihon Kohden, Model TP-602T) connected to a T-tube on the tracheal cannula. The increase in air overflow volume was expressed as a percentage of the maximum bronchoconstriction obtained by clamping off the trachea. Following surgical preparation, the animals were pretreated with indomethacin (2 mg/kg, 10 min), pyrilamine (2 mg/kg, 6 min) and propranolol (0.1 mg/kg, 5 min) prior to the EA challenge (0.2 mg/kg). All test compounds were administered orally 2 hrs before the EA challenge. Inhibition (%) of bronchoconstriction was determined as follows: Inhibition (%)=(1.0 - % maximum bronchoconstriction in test/% maximum bronchoconstriction in control)×100. The maximum bronchoconstriction was 62±6% (Mean±S.E.M; n=6) and the number of test animals was 5-6.

The structures appear in SMILES notation.

As to `CCCCOc1cc(CNc2c(OC(C)C)n[nH]c(=O)c2Cl)ccc1OC` [Compound No. 69], the “Lethal ratio: Death number” value in series [1] is on record as 0. The inhibition at 1 µg/mL with LTD4 came to 100%. Further, in the series with LTD4 (10^-7 g/ml test compound, read-out: LTD4 Antagonism (%) (in parenthesis)), the inhibition at 0.1 µg/mL was found to be 83%. Also, the “Inhibition (%) of bronchoconstriction” value with SRS-A (30 mg/kg orally) is on record as 52%. Also, the “inhibitory effects over the control (in words)” value in the series with SRS-A is listed as “significant inhibitory effects”.
Turning to `CCCCOc1cc(CNc2c(OCC)n[nH]c(=O)c2Cl)ccc1OC` [Compound No. 68, 4-chloro-5-(3-n-butoxy-4-methoxybenzylamino)-6-ethoxy-3(2H)pyridazinone], the “Lethal ratio: Death number” value in series [1] was found to be 0. Besides, the inhibition at 1 µg/mL with LTD4 came to 92%. In addition, the “Inhibition (%) of bronchoconstriction” value in the series with SRS-A (10 mg/kg orally) is reported as 63%; in the series on SRS-A (30 mg/kg orally) it was 51%. Further, in the series with SRS-A, the “inhibitory effects over the control (in words)” value is listed as “significant inhibitory effects”.
